Experimental data: publication PMC5452965 (PeerJ, 2017)
Like-named read-outs stand apart in the source and are kept apart here.

Columns and labels:
[1] = system: Hela cells; test: MTT assay (cytotoxicity), Hela; format: cell-based, human; settings: 48 h; for IC80: 80% reduction of cell viability
Procedure: (§1) The anti-proliferative effects of cucurbitacins were assessed using MTT assay, as previously described ([Nurcahyanti & Wink, 2015]). In brief, cells (1 × 10^4) were seeded in 96-well plates and incubated with different concentrations of cucurbitacins for 48 h (Hela, U2OS) and 72 h (MCF-7). MTT solution was then added and incubated for 2 h. The plates were read at 570 nm after the addition of DMSO using Tecan infinite M200 Pro (Tecan, Crailsheim, Germany).
(§2) All experiments were done in triplicate, repeated three times. Data are presented as mean ± standard deviation (SD). Statistical comparison between controls and different treatments were performed by an unpaired student’s t test using Microsoft excel 2013 (Microsoft Corporation, Washington, USA). Significance was considered at p < 0.05.

[2] = system: MCF-7 cells; test: MTT assay (cytotoxicity), MCF-7; format: cell-based, human
Procedure: as §1, §2

[3] = system: U2OS cells; test: MTT assay (cytotoxicity), U2OS; format: cell-based, human; settings: 48 h
Procedure: as §1, §2

[4] = target: T1, Porcine brain tubulin plus MAPs (Sus scrofa, UniProt P02550+P02554); test: In vitro tubulin polymerization assay; format: biochemical; settings: for effect on tubulin assembly in vitro at 1 mM: Figure 4D
T1 construct: Porcine brain tubulin plus MAPs was prepared by two cycles of polymerization and depolymerization; from tissue; host or cells: porcine brain
Procedure: Porcine brain tubulin plus MAPs was prepared by two cycles of polymerization and depolymerization according to a standard protocol ([Gell et al., 2011]). In-vitro tubulin polymerization assays were carried out in PEM buffer (100 mM PIPES, 2 mM EGTA, 0.1 mM EDTA, 3 mM MgCl2, 1 mM ATP and 1 mM GTP, pH 6.85) by mixing 5.6 mg/ml tubulin-MAPs with different concentrations of cucurbitacins in 96-well plates at 37°C for 40 min. The rate and extent of the polymerization reaction were monitored by light scattering at 360 nm using Tecan infinite M200 Pro.
as §2

[5] = system: Hela cells; test: Cell cycle analysis (propidium iodide, flow cytometry); format: cell-based, human; settings: 24 h
Procedure: Cell cycle analysis was carried out as established in our laboratory ([Su, Cheng & Wink, 2015]). Briefly, Hela cells (5 × 10^5) were seeded in 6-well-plates and treated with different concentrations of cucurbitacins for 24 h. Cells were then collected, centrifuged and fixed in 70% ice-cold ethanol for at least 8 h. After washing steps, cells were treated with 0.2 mg/ml RNase A for 30 min at 37 C and then stained with 0.1 mg/ml propidium iodide. Samples were analyzed using a FACScan flow cytometer (Becton Dickinson, Heidelberg, Germany). Data were analyzed using Cell Quest™ Pro software (Becton Dickinson) and Microsoft excel (Microsoft Corporation, Washington, USA).

[6] = system: mitotic spindles in Hela cells; test: Immunofluorescence staining, mitotic spindles; format: cell-based, human; settings: Hela metaphase cells, 24 h, IC50
Procedure: The immunofluorescence staining was carried out as established in our laboratory ([Wang et al., 2016a]).

[7] = system: Hela, MCF-7 and U2OS cells; test: MTT assay, summary over three cell lines; format: cell-based; settings: Homo sapiens; range over Hela, MCF-7, U2OS and over the three cucurbitacins
Procedure: as §1, §2

[8] = system: microtubule network in α-tubulin-GFP U2OS cells; test: Imaging of tubulin-GFP transfected U2OS cells; format: cell-based, human; settings: IC80 and IC50, 2-48 h
Procedure: Cells were imaged using a Keyence BZ-9000 microscope (Keyence; Neu-Isenburg, Germany) after incubation for 2 h, 4 h, 24 h and 48 h. The images were analyzed using BZ-II Analyzer software (version 2.1, Keyence; Neu-Isenburg, Germany).

[9] = system: Hela cells; settings: MTT, 48 h; ref Wang et al. (2016a); cited from earlier work
[10] = system: MCF-7 cells; settings: MTT, 72 h; ref Wang et al. (2016a); cited from earlier work
[11] = system: U2OS cells; settings: MTT, 48 h; ref Wang et al. (2016a); cited from earlier work
[12] = target: T1, Porcine brain tubulin plus MAPs
[13] = system: Hela cells; settings: 24 h, ref Wang et al. (2016a), cited from earlier work
[14] = system: microtubule network in α-tubulin-GFP U2OS cells; settings: cited from earlier work
[15] = system: mitotic spindles in Hela cells; settings: Hela metaphase cells, 24 h, IC50; ref Wang et al. (2016a); cited from earlier work
[16] = system: actin filaments in Hela cells; settings: cited from earlier work
[17] = system: cellular actin filaments in actin-RFP Hela cells; settings: ref Wang et al. (2016a); cited from earlier work
[18] = 1 h and 24 h, ref Wang et al. (2016a)

T1 sequence (P02550 whole entry): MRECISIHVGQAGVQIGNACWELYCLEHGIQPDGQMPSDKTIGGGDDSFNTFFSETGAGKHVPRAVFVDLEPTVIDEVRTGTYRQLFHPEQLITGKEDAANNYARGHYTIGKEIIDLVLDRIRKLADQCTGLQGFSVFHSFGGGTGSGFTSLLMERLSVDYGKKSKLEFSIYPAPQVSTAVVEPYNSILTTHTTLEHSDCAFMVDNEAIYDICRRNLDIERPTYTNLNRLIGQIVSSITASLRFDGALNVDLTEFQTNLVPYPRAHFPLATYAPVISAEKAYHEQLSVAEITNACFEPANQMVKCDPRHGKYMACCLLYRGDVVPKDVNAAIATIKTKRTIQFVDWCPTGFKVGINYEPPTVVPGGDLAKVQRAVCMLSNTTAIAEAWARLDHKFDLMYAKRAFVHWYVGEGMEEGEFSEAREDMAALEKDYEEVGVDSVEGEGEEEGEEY
T1 sequence (P02554 whole entry): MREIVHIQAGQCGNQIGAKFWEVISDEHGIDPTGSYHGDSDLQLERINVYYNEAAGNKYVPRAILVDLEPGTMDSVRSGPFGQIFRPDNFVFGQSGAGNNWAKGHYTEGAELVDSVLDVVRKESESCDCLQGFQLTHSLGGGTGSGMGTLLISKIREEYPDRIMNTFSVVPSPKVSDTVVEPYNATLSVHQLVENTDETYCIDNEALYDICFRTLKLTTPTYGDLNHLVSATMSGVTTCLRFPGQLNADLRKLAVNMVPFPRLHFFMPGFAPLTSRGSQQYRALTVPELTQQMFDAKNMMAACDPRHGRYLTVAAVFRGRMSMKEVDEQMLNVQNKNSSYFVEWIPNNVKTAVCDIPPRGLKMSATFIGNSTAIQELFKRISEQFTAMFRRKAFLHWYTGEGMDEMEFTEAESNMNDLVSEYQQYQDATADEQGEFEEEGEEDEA

Molecule | IC50 ([1]; Homo sapiens, HeLa) | IC80 ([1]; Homo sapiens, HeLa) | IC50 ([2]; Homo sapiens, MCF7, 72 h) | IC80 ([2]; Homo sapiens, MCF7, 72 h) | IC50 ([3]; Homo sapiens, U2OS) | IC80 ([3]; Homo sapiens, U2OS) | IC50 [4] | effect on tubulin assembly in vitro [4] | effect on tubulin assembly in vitro at 1 mM [4] | effect on cell cycle [5] | effect on mitotic spindles [6] | IC50 [7] | effect on cellular microtubule network [8] | IC50 [9] | IC80 [9] | IC80 [10] | IC80 [11] | effect on cell cycle [13] | effect on mitotic spindles [15] | effect on cellular actin filaments (actin-RFP) [17] | other results
CC(C)(O)/C=C/C(=O)[C@](C)(O)[C@H]1[C@H](O)C[C@@]2(C)[C@@H]3CC=C4[C@@H](C=C(O)C(=O)C4(C)C)[C@]3(C)C(=O)C[C@]12C [Cucurbitacin I, cucurbitacin I] | 0.0448 ± 0.00154 µM | 0.0555 ± 0.00363 µM | 0.0647 ± 0.0143 µM | 0.29 ± 0.08 µM | 0.0235 ± 0.0169 µM | 0.034 ± 0.0177 µM | > 1000 µM | did not affect the tubulin assembly in vitro | did not affect the assembly | potential ability to arrest cell cycle at G2/M phase | multipolar spindles and chromosomes mis-segregation on the metaphase plate | 0.00643 to 0.0647 µM | – | – | – | – | – | – | – | – | G2/M population ([5]; 0.6μM): 59.18 ± 7.2%
CC(=O)OC(C)(C)/C=C/C(=O)[C@](C)(O)[C@H]1[C@H](O)C[C@@]2(C)[C@@H]3CC=C4[C@@H](C=C(O)C(=O)C4(C)C)[C@]3(C)C(=O)C[C@]12C [Cucurbitacin E, cucurbitacin E] | 0.00643 ± 0.00105 µM | 0.0151 ± 0.00267 µM | 0.054 ± 0.00316 µM | 0.92 ± 0.2 µM | 0.0151 ± 0.00451 µM | 0.0263 ± 0.0185 µM | 567 ± 113 µM | – | – | potential ability to arrest cell cycle at G2/M phase | disordered distribution of spindle array | 0.00643 to 0.0647 µM | changed the morphology of microtubule network into half-stretching state after 2 h incubation then round state after 24 h incubation | – | – | – | – | – | – | – | effect on phases of microtubule assembly (nucleation, growth, steady state) [4]: did not affect the nucleation but inhibited the growth phase and steady state; G2/M population ([5]; 0.3μM): 59.35 ± 5.69%
CC[C@]1(O)C[C@@H]2CN(CCc3c([nH]c4ccccc34)[C@@](C(=O)OC)(c3cc4c(cc3OC)N(C)[C@H]3[C@@](O)(C(=O)OC)[C@H](OC(C)=O)[C@]5(CC)C=CCN6CC[C@]43[C@@H]65)C2)C1 [Vinblastine, vinblastine] | – | – | – | – | – | – | – | – | – | – | – | – | – | 2e-05 ± 1e-05 µM | 0.7 ± 0.34 µM | 2.08 ± 0.92 µM | 1.15 ± 0.51 µM | dose-dependent G2/M cell cycle arrest | depolymerized bipolar spindles | No notable changes on actin filaments | IC50 [10]: 6e-05 ± 5e-05 µM; IC50 [11]: 0.00011 ± 7e-05 µM; IC50 ([12]; 5.6 mg/ml tubulin-MAPs, 37°C, 40 min; ref Wang et al. (2016a); read-out: IC50, inhibition of tubulin polymerization in vitro; cited from earlier work): 1.57 ± 0.34 µM; effect on phases of microtubule assembly (nucleation, growth, steady state) ([12]; ref Wang et al. (2016a); cited from earlier work): inhibited the nucleation and growth phase during the assembly; G2/M population ([13]; 10 nM): 78.04 ± 14.78%; effect on cellular microtubule network ([14]; concentration of IC50, ref Wang et al. (2016a)): extensively depolymerized microtubules; effect on cellular microtubule network ([14]; concentration of IC80, ref Wang et al. (2016a)): tubulin paracrystals were formed and dispersed through out the cytoplasm; effect on actin filaments (immunofluorescence) ([16]; 24 h, concentration of IC80, ref Wang et al. (2016a)): slight reduction of actin filament mass
COc1cc2c(c(OC)c1OC)-c1ccc(OC)c(=O)cc1[C@@H](NC(C)=O)CC2 [Colchicine, colchicine] | – | – | – | – | – | – | – | – | – | – | – | – | – | – | 0.027 ± 0.00748 µM | 0.0799 ± 0.0409 µM | 0.87 ± 1.46 µM | dose-dependent G2/M cell cycle arrest | completely depolymerized spindle with the compacted chromosomes | No notable changes on actin filaments | G2/M population ([13]; 0.1μM): 89.66 ± 2.04%; effect on actin filaments (immunofluorescence) [16, 18]: No apparent changes on actin filaments
cucurbitacin B | – | – | – | – | – | – | – | did not affect the tubulin assembly in vitro | did not affect the assembly | potential ability to arrest cell cycle at G2/M phase | disordered distribution of spindle array | – | changed the morphology of microtubule network into half-stretching state after 2 h incubation then round state after 24 h incubation | – | – | – | – | – | – | – | IC50 [1]: 0.0122 ± 0.00142 µM; IC80 [1]: 0.022 ± 0.00139 µM; IC50 ([2]; 72 h): 0.0229 ± 0.00451 µM; IC80 ([2]; 72 h): 0.0437 ± 0.0106 µM; IC50 [3]: 0.0171 ± 0.00455 µM; IC80 [3]: 0.0281 ± 0.0152 µM; effect on tubulin polymerization in vitro ([12]; same assay; ref Duangmano et al. (2012); cited from earlier work): did not affect tubulin polymerization in vitro
C/C1=C/C(=O)O[C@@H]2C[C@@H](CC[C@H](C)/C=C\CC1)O[C@@](O)([C@@H]1CSC(=O)N1)C2 [Latrunculin B, latrunculin B] | – | – | – | – | – | – | – | – | – | – | – | – | – | 11.2 ± 1.27 µM | 63.9 ± 5.68 µM | 140 ± 6.58 µM | 37.2 ± 15.7 µM | dose-dependent G2/M cell cycle arrest | did not alter mitotic spindles and chromosome arrangements | actin cytoskeleton significantly disrupted | IC50 [10]: 38.5 ± 1.7 µM; IC50 [11]: 5.67 ± 0.59 µM; IC50 ([12]; read-out: IC50, inhibition of tubulin polymerization in vitro; 5.6 mg/ml tubulin-MAPs, 37°C, 40 min; ref Wang et al. (2016a); cited from earlier work): > 1000 µM; effect on cellular microtubule network ([14]; both concentrations (IC80, IC50), ref Wang et al. (2016a)): changed the cell morphology from stretching state into round state; effect on actin filaments (immunofluorescence) [16, 18]: actin cytoskeleton extensively disrupted
